In patent publication US10669284B2, “Fused thiazolopyrimidine derivatives as MNKS inhibitors” (LIFEARC, priority 2015, dated 2020):

What was measured:
KIT = KIT (Homo sapiens, UniProt P10721); experiment: Kinase selectivity screen KIT; conditions: read-out: % inhibition of KIT
CDK1/CCNB1 = CDK1/CCNB1 (Homo sapiens, UniProt P06493); experiment: Kinase selectivity screen CDK1/CCNB1; conditions: read-out: % inhibition of CDK1/CCNB1
DMPK = molecular target: T1, DMPK (Homo sapiens, UniProt Q09013); experiment: Kinase selectivity screen DMPK; conditions: read-out: % inhibition of DMPK
T1 sequence (Q09013 1-629): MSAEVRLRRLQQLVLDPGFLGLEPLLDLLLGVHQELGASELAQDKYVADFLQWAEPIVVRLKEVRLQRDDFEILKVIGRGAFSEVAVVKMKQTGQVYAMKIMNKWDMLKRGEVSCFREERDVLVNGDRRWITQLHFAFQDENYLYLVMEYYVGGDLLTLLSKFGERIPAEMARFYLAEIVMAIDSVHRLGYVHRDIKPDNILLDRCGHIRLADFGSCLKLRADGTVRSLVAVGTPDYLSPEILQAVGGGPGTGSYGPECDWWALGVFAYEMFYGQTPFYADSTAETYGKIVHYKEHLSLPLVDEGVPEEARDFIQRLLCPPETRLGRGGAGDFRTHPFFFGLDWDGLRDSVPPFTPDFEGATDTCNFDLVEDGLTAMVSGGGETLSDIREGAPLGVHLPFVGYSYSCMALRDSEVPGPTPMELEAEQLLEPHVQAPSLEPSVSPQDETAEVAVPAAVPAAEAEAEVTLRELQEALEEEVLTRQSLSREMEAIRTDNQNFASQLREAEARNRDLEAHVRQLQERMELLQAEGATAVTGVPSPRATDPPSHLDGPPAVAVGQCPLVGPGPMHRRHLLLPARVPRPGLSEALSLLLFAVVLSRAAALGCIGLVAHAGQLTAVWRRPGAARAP

RPS6KB1 = RPS6KB1 (Homo sapiens, UniProt P23443); experiment: Kinase selectivity screen RPS6KB1; conditions: read-out: % inhibition of RPS6KB1
RPS6KA5 = RPS6KA5 (Homo sapiens, UniProt O75582); experiment: Kinase selectivity screen RPS6KA5; conditions: read-out: % inhibition of RPS6KA5
MYLK = MYLK (Homo sapiens, UniProt Q15746); experiment: Kinase selectivity screen MYLK; conditions: read-out: % inhibition of MYLK
FGFR3 = FGFR3 (Homo sapiens, UniProt P22607); experiment: Kinase selectivity screen FGFR3; conditions: read-out: % inhibition of FGFR3
CAMK2B = CAMK2B (Homo sapiens, UniProt Q13554); experiment: Kinase selectivity screen CAMK2B; conditions: read-out: % inhibition of CAMK2B
PAK7 = PAK7 (Homo sapiens, UniProt Q9P286); experiment: Kinase selectivity screen PAK7; conditions: read-out: % inhibition of PAK7
FGFR4 = FGFR4 (Homo sapiens, UniProt P22455); experiment: Kinase selectivity screen FGFR4; conditions: read-out: % inhibition of FGFR4
ROCK2 = ROCK2 (Homo sapiens, UniProt O75116); experiment: Kinase selectivity screen ROCK2; conditions: read-out: % inhibition of ROCK2
AURKC = molecular target: T2, AURKC (Homo sapiens, UniProt Q9UQB9); experiment: Kinase selectivity screen AURKC; conditions: read-out: % inhibition of AURKC
T2 sequence (Q9UQB9 1-309): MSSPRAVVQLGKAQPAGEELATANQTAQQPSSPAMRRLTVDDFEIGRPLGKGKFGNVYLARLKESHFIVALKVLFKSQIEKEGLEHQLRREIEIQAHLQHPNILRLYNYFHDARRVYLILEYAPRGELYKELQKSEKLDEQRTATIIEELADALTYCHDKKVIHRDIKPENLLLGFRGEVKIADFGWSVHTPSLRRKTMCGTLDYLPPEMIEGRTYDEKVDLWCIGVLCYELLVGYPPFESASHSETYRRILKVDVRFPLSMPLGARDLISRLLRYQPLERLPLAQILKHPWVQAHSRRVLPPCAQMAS

ROCK2, sequence (O75116 whole entry, species assumed): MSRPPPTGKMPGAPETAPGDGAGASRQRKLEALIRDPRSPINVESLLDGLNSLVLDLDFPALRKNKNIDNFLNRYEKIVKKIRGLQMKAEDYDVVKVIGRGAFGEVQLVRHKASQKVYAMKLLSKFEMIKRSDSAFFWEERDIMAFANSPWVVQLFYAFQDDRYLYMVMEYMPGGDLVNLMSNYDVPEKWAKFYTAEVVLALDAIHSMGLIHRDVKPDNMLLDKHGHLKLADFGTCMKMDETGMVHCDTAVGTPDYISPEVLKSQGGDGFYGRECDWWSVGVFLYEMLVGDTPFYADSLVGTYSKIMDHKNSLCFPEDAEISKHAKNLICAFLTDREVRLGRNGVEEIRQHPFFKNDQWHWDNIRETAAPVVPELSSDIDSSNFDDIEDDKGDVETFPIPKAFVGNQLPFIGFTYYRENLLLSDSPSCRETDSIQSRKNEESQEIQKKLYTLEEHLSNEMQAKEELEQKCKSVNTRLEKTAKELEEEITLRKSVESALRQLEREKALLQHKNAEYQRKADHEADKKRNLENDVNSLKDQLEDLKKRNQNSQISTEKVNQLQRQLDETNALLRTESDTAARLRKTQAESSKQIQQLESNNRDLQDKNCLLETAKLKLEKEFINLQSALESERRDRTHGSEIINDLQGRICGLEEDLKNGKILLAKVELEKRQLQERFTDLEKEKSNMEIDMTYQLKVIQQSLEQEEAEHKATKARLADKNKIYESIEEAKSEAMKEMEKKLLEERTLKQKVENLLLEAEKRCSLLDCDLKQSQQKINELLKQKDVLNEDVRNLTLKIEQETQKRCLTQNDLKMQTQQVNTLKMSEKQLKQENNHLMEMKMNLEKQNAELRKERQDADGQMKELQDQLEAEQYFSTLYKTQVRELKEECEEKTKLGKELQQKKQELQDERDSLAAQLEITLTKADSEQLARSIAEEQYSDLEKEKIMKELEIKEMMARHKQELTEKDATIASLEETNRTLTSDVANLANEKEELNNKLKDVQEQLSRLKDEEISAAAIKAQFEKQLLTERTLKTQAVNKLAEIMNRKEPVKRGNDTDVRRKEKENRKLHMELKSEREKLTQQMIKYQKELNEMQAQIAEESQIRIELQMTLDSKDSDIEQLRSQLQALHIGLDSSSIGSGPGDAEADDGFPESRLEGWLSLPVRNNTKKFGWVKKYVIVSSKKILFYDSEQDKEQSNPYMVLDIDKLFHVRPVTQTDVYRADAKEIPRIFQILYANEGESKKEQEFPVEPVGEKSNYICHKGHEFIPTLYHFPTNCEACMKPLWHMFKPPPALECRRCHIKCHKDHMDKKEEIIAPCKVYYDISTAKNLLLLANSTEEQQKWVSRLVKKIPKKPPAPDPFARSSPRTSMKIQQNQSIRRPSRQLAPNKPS
FGFR4, sequence (P22455 22-802, species assumed): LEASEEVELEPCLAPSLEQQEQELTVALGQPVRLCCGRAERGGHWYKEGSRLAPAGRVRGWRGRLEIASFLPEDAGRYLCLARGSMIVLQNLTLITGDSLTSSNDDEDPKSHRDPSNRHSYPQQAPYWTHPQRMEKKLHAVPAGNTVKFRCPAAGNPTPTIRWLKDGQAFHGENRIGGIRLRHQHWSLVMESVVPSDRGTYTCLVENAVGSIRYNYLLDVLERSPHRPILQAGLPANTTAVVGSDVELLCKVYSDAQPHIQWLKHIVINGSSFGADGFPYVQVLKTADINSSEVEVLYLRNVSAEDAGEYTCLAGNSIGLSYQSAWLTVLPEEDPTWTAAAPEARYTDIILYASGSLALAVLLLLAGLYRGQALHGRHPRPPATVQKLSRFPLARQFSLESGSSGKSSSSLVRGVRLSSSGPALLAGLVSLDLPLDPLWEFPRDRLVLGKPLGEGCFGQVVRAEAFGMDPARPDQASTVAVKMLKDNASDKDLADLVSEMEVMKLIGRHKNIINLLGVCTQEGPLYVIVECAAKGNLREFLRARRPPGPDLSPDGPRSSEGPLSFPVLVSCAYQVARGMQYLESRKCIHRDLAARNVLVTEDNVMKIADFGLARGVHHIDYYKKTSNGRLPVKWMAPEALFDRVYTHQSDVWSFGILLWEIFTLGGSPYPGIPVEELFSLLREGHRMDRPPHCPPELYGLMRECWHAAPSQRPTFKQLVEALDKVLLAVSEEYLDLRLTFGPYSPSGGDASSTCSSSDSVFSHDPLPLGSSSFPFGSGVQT
RPS6KB1, sequence (P23443 whole entry, species assumed): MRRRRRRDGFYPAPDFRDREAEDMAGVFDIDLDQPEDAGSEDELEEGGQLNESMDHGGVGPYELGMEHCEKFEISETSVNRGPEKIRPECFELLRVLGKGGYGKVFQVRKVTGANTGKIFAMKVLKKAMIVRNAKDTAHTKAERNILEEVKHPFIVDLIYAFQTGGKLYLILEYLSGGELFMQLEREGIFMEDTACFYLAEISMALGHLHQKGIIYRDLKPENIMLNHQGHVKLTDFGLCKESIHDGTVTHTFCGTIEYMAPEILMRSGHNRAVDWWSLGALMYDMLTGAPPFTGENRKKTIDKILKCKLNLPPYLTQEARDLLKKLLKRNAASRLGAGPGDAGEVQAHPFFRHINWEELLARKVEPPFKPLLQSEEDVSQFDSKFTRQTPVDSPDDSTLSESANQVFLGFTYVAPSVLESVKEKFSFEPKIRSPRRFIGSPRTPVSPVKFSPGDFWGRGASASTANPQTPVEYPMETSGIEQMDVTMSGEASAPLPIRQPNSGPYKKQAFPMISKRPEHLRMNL
KIT, sequence (P10721 26-976, species assumed): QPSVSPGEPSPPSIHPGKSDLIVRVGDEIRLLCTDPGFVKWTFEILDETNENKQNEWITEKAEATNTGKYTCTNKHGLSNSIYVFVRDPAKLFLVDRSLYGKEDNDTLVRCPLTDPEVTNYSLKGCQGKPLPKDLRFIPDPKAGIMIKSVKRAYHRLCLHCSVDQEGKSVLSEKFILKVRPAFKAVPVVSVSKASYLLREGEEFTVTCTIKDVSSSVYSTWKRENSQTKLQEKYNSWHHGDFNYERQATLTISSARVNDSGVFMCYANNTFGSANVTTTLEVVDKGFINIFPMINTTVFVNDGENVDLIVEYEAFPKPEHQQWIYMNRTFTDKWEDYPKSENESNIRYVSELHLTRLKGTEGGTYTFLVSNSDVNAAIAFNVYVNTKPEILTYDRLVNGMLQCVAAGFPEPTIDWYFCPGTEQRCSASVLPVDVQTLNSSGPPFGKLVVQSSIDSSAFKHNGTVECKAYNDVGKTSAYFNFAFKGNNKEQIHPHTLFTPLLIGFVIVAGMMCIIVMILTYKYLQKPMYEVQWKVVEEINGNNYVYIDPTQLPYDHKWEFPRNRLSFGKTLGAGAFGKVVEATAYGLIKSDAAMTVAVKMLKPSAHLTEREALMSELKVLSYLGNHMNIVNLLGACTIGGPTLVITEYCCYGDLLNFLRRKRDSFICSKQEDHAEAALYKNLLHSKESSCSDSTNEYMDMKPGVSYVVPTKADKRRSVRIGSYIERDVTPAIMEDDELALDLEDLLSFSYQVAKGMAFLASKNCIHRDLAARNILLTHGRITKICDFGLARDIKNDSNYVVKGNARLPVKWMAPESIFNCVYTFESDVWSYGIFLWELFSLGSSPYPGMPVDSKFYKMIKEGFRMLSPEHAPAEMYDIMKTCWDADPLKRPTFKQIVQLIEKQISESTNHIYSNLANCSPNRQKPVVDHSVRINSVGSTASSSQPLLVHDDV
RPS6KA5, sequence (O75582 whole entry, species assumed): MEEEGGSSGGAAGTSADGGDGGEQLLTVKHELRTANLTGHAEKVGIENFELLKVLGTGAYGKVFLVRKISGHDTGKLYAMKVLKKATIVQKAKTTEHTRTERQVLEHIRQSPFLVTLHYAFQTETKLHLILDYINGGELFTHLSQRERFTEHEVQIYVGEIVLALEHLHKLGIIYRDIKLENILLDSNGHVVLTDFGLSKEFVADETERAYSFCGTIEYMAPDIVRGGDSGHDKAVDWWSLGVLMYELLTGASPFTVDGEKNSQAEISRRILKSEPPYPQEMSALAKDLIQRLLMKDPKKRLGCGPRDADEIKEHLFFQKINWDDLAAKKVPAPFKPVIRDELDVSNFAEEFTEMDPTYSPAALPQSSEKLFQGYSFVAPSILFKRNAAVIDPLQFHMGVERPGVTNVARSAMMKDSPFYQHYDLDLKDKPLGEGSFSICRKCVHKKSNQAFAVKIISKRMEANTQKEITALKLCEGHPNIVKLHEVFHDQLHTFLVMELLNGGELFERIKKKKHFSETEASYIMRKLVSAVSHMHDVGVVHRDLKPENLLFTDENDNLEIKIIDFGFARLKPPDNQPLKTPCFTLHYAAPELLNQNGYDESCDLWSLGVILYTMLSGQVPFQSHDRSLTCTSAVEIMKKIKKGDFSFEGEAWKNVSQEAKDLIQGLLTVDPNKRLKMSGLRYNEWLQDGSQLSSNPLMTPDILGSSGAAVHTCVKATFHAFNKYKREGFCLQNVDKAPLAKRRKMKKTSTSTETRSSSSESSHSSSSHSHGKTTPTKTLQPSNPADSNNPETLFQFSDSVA
MYLK, sequence (Q15746 1425-1771): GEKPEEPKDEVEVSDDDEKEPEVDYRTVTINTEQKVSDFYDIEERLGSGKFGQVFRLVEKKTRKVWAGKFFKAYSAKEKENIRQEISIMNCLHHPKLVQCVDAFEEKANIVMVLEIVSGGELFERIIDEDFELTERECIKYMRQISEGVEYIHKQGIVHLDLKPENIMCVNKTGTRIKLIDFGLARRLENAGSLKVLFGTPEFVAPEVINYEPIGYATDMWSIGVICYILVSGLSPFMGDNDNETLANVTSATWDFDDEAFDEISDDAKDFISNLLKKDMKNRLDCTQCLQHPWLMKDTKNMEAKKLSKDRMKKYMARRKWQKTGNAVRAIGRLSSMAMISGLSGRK

In the case of `O=C(NCC1CCNCC1)c1nc2c(N3CCc4cc(F)ccc43)ncnc2s1` [Example 58, 7-(5-fluoroindolin-1-yl)-N-(4-piperidylmethyl)thiazolo[5,4-d]pyrimidine-2-carboxamide], the inhibition at 1 µM (KIT) is reported as 7%, the inhibition at 1 µM (CDK1/CCNB1) is reported as 0% and the inhibition at 1 µM (DMPK) is reported as 0%. For the same compound, the inhibition at 1 µM (RPS6KB1) was 0%, the inhibition at 1 µM (RPS6KA5) was 0% and the inhibition at 1 µM (MYLK) was 15%. The inhibition at 1 µM (FGFR3) was 0%, the inhibition at 1 µM (CAMK2B) was 17% and the inhibition at 1 µM (PAK7) was 0%. The inhibition at 1 µM (FGFR4) was 10%, the inhibition at 1 µM (ROCK2) was 8% and the inhibition at 1 µM (AURKC) was 5%.
In the case of `CN(C)CCCNC(=O)c1nc2c(N3CCc4cc(F)ccc43)ncnc2s1` [Example 64, N-[3-(dimethylamino)propyl]-7-(5-fluoroindolin-1-yl)thiazolo[5,4-d]pyrimidine-2-carboxamide], the inhibition at 1 µM (KIT) is reported as 0%, the inhibition at 1 µM (CDK1/CCNB1) is reported as 4% and the inhibition at 1 µM (DMPK) is reported as 0%. For the same compound, the inhibition at 1 µM (RPS6KB1) was 0%, the inhibition at 1 µM (RPS6KA5) was 24% and the inhibition at 1 µM (MYLK) was 15%. For the same compound, the inhibition at 1 µM (FGFR3) was 3%, the inhibition at 1 µM (CAMK2B) was 57% and the inhibition at 1 µM (PAK7) was 0%. The inhibition at 1 µM (FGFR4) was 0%, the inhibition at 1 µM (ROCK2) was 18% and the inhibition at 1 µM (AURKC) was 15%.
`CC(C)Oc1cc(F)ccc1Nc1ncnc2sc(C(=O)NCC3CCNCC3)nc12` [Example 10, 7-(4-fluoro-2-isopropoxy-anilino)-N-(4-piperidylmethyl)thiazolo[5,4-d]pyrimidine-2-carboxamide] was tested, and the inhibition at 1 µM (KIT) was 0%, the inhibition at 1 µM (CDK1/CCNB1) was 8% and the inhibition at 1 µM (DMPK) was 0%. For the same compound, the inhibition at 1 µM (RPS6KB1) was 0%, the inhibition at 1 µM (RPS6KA5) was 0% and the inhibition at 1 µM (MYLK) was 10%. It also gave an inhibition at 1 µM (FGFR3) of 0%, an inhibition at 1 µM (CAMK2B) of 2% and an inhibition at 1 µM (PAK7) of 1%. It also gave an inhibition at 1 µM (FGFR4) of 0%, an inhibition at 1 µM (ROCK2) of 1% and an inhibition at 1 µM (AURKC) of 14%.
